Assay results reported in patent US20260028365A1 (BIOGEN MA INC., priority 2022, published 2026).
Structures can show the parent of a compound that is named as a salt.

Experiments:
JH2 domain of human Tyk2 = JH2 domain of human Tyk2 (Homo sapiens (Human), UniProt P29597); test: JH2 Biochemical Assay (TR-FRET probe displacement); type: binding; conditions: TR-FRET probe displacement, JH2 domain of human Tyk2
Tyk2 = Tyk2 (Homo sapiens (Human), UniProt P29597); test: pSTAT4 Cell Assay (MSD, NK92 cells); type: cell-based; conditions: MSD
Chain of Tyk2 (P29597 whole entry): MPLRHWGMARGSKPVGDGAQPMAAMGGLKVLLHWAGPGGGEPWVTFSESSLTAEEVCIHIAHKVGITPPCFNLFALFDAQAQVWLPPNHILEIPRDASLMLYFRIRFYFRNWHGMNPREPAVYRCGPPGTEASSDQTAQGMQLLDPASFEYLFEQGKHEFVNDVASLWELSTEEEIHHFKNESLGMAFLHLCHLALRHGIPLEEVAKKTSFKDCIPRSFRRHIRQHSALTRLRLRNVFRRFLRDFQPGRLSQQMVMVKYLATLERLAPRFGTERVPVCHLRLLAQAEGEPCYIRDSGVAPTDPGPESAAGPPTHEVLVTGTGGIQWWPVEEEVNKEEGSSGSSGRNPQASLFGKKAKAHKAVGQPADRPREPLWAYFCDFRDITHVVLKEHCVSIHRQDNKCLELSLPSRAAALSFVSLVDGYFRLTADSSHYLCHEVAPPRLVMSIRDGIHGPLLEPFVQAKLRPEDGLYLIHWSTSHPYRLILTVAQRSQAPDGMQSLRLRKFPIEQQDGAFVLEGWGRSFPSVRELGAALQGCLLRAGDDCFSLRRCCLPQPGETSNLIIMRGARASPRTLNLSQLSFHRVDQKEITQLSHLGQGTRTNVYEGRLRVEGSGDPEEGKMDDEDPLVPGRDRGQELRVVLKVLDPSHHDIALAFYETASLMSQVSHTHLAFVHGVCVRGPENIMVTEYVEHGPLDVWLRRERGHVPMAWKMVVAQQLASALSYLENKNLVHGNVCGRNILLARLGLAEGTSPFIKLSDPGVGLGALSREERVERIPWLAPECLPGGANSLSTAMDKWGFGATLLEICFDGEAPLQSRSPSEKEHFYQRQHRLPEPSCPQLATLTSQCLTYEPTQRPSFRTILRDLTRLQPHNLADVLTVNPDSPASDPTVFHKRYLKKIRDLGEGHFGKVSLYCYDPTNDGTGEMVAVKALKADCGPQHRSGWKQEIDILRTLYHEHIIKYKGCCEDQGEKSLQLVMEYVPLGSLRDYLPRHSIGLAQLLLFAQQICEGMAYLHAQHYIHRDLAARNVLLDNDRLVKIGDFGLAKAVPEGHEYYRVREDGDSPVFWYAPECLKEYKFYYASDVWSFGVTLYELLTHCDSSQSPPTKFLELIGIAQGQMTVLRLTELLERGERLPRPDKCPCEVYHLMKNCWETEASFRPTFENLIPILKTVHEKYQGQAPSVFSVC

Chain of JH2 domain of human Tyk2 (P29597 575-876): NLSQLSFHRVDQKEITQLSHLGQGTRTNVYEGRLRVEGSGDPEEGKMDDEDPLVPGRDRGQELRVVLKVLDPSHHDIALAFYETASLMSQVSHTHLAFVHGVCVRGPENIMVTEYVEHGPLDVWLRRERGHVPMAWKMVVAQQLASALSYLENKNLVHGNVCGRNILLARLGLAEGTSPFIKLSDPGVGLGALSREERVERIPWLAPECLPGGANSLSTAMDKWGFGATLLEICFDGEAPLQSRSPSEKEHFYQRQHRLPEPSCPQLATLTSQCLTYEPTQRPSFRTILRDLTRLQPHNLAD

SMILES: CCOc1cc(-c2cnc(NC(C)=O)cc2Nc2cc(C)nc(C(C)(F)F)n2)ncn1 [Example 243, N-(4-((2-(1,1-difluoroethyl)-6-methylpyrimidin-4-yl)amino)-5-(6-ethoxypyrimidin-4-yl)pyridin-2-yl)acetamide]
- IC50 (JH2 domain of human Tyk2): ≤ 10 nM
- IC50 (Tyk2): 10 to 100 nM

SMILES: CCc1cc(-c2cnc(NC(C)=O)cc2Nc2cc(C)nc(C(C)(F)F)n2)ncn1 [Example 244, N-(4-((2-(1,1-difluoroethyl)-6-methylpyrimidin-4-yl)amino)-5-(6-ethylpyrimidin-4-yl)pyridin-2-yl)acetamide]
- IC50 (JH2 domain of human Tyk2): ≤ 10 nM
- IC50 (Tyk2): 10 to 100 nM

SMILES: CC(=O)Nc1cc(Nc2cc(C)nc(C(C)(F)F)n2)c(-c2cc(C(C)C)ncn2)cn1 [Example 245, N-(4-((2-(1,1-difluoroethyl)-6-methylpyrimidin-4-yl)amino)-5-(6-isopropylpyrimidin-4-yl)pyridin-2-yl)acetamide]
- IC50 (JH2 domain of human Tyk2): ≤ 10 nM
- IC50 (Tyk2): 10 to 100 nM

SMILES: CC(=O)Nc1cc(Nc2cc(C)nc(C(C)(F)F)n2)c(-c2cc(N(C)C)ncn2)cn1 [Example 247, N-(4-((2-(1,1-difluoroethyl)-6-methylpyrimidin-4-yl)amino)-5-(6-(dimethylamino)pyrimidin-4-yl)pyridin-2-yl)acetamide]
- IC50 (JH2 domain of human Tyk2): ≤ 10 nM
- IC50 (Tyk2): ≥ 1000 nM

SMILES: COCCn1cnc(-c2cnc(NC(C)=O)cc2Nc2cc(C)nc(C(C)(F)F)n2)cc1=O [Example 250, N-(4-((2-(1,1-difluoroethyl)-6-methylpyrimidin-4-yl)amino)-5-(1-(2-methoxyethyl)-6-oxo-1,6-dihydropyrimidin-4-yl)pyridin-2-yl)acetamide]
- IC50 (JH2 domain of human Tyk2): ≤ 10 nM
- IC50 (Tyk2): 100 to 1000 nM

SMILES: CC(=O)Nc1cc(Nc2cc(C)nc(C(C)(F)F)n2)c(-c2cccnn2)cn1 [Example 251, N-(4-((2-(1,1-difluoroethyl)-6-methylpyrimidin-4-yl)amino)-5-(pyridazin-3-yl)pyridin-2-yl)acetamide]
- IC50 (JH2 domain of human Tyk2): ≤ 10 nM
- IC50 (Tyk2): ≤ 10 nM

SMILES: CC(=O)Nc1cc(Nc2cc(C)nc(C(C)(F)F)n2)c(-c2cc(C)cnn2)cn1 [Example 252, N-(4-((2-(1,1-difluoroethyl)-6-methylpyrimidin-4-yl)amino)-5-(5-methylpyridazin-3-yl)pyridin-2-yl)acetamide]
- IC50 (JH2 domain of human Tyk2): ≤ 10 nM
- IC50 (Tyk2): ≤ 10 nM

SMILES: CC(=O)Nc1cc(Nc2cc(C)nc(C(C)(F)F)n2)c(-c2cc(NC(C)C)cnn2)cn1 [Example 254, N-(4-((2-(1,1-difluoroethyl)-6-methylpyrimidin-4-yl)amino)-5-(5-(isopropylamino)pyridazin-3-yl)pyridin-2-yl)acetamide]
- IC50 (JH2 domain of human Tyk2): ≤ 10 nM
- IC50 (Tyk2): ≤ 10 nM

SMILES: CC(=O)Nc1cc(Nc2ccnc(C(C)(F)F)n2)c(-c2nnc(N3CCOCC3)s2)cn1 [Example 255, N-(4-((2-(1,1-difluoroethyl)pyrimidin-4-yl)amino)-5-(5-morpholino-1,3,4-thiadiazol-2-yl)pyridin-2-yl)acetamide]
- IC50 (JH2 domain of human Tyk2): ≤ 10 nM
- IC50 (Tyk2): ≤ 10 nM

SMILES: CC(=O)Nc1cc(Nc2ccnc(C(C)(F)F)n2)c(-c2cc(N(C)C)ncn2)cn1 [Example 256, N-(4-((2-(1,1-difluoroethyl)pyrimidin-4-yl)amino)-5-(6-(dimethylamino)pyrimidin-4-yl)pyridin-2-yl)acetamide]
- IC50 (JH2 domain of human Tyk2): 10 to 100 nM
- IC50 (Tyk2): ≥ 1000 nM

SMILES: COCCn1ccc(-c2cnc(NC(C)=O)cc2Nc2cc(C)nc(C(C)(F)F)n2)n1 [Example 257, N-(4-((2-(1,1-difluoroethyl)-6-methylpyrimidin-4-yl)amino)-5-(1-(2-methoxyethyl)-1H-pyrazol-3-yl)pyridin-2-yl)acetamide]
- IC50 (JH2 domain of human Tyk2): ≤ 10 nM
- IC50 (Tyk2): ≤ 10 nM

SMILES: COCCn1nccc1-c1cnc(NC(C)=O)cc1Nc1cc(C)nc(C(C)(F)F)n1 [Example 258, N-(4-((2-(1,1-difluoroethyl)-6-methylpyrimidin-4-yl)amino)-5-(1-(2-methoxyethyl)-1H-pyrazol-5-yl)pyridin-2-yl)acetamide]
- IC50 (JH2 domain of human Tyk2): 100 to 1000 nM
- IC50 (Tyk2): 100 to 1000 nM

SMILES: COCCn1cc(-c2cnc(NC(C)=O)cc2Nc2cc(C)nc(C(C)(F)F)n2)nn1 [Example 259, N-(4-((2-(1,1-difluoroethyl)-6-methylpyrimidin-4-yl)amino)-5-(1-(2-methoxyethyl)-1H-1,2,3-triazol-4-yl)pyridin-2-yl)acetamide]
- IC50 (JH2 domain of human Tyk2): ≤ 10 nM
- IC50 (Tyk2): ≤ 10 nM

SMILES: CCc1cc(Nc2cc(NC(C)=O)ncc2-c2cnn(CCOC)n2)nc(C(C)(F)F)n1 [Example 261, N-(4-((2-(1,1-difluoroethyl)-6-ethylpyrimidin-4-yl)amino)-5-(2-(2-methoxyethyl)-2H-1,2,3-triazol-4-yl)pyridin-2-yl)acetamide]
- IC50 (JH2 domain of human Tyk2): ≤ 10 nM
- IC50 (Tyk2): ≤ 10 nM

SMILES: CCc1cc(Nc2cc(NC(C)=O)ncc2-c2cn(CCOC)nn2)nc(C(C)(F)F)n1 [Example 262, N-(4-((2-(1,1-difluoroethyl)-6-ethylpyrimidin-4-yl)amino)-5-(1-(2-methoxyethyl)-1H-1,2,3-triazol-4-yl)pyridin-2-yl)acetamide]
- IC50 (JH2 domain of human Tyk2): ≤ 10 nM
- IC50 (Tyk2): ≤ 10 nM

SMILES: COCCn1cnc(-c2cnc(NC(C)=O)cc2Nc2cc(C)nc(C(C)(F)F)n2)n1 [Example 263, N-(4-((2-(1,1-difluoroethyl)-6-methylpyrimidin-4-yl)amino)-5-(1-(2-methoxyethyl)-1H-1,2,4-triazol-3-yl)pyridin-2-yl)acetamide]
- IC50 (JH2 domain of human Tyk2): ≤ 10 nM
- IC50 (Tyk2): 100 to 1000 nM

SMILES: COC(C)(C)c1cc(-c2cnc(NC(C)=O)cc2Nc2cc(C)nc(C(C)(F)F)n2)ncn1 [Example 264, N-(4-((2-(1,1-difluoroethyl)-6-methylpyrimidin-4-yl)amino)-5-(6-(2-methoxypropan-2-yl)pyrimidin-4-yl)pyridin-2-yl)acetamide]
- IC50 (JH2 domain of human Tyk2): 100 to 1000 nM
- IC50 (Tyk2): 100 to 1000 nM

SMILES: CC(=O)Nc1cc(Nc2ccnc(C(C)(F)F)n2)c(-c2ccc(COC(F)F)cn2)cn1 [Example 265, N-(4′-((2-(1,1-difluoroethyl)pyrimidin-4-yl)amino)-5-((difluoromethoxy)methyl)-[2,3′-bipyridin]-6′-yl)acetamide]
- IC50 (JH2 domain of human Tyk2): ≤ 10 nM
- IC50 (Tyk2): ≤ 10 nM

SMILES: CCc1cc(Nc2cc(NC(C)=O)ncc2-c2ccc(OCCOC)nn2)nc(C(C)(F)F)n1 [Example 269, N-(4-((2-(1,1-difluoroethyl)-6-ethylpyrimidin-4-yl)amino)-5-(6-(2-methoxyethoxy)pyridazin-3-yl)pyridin-2-yl)acetamide trifluoroacetate]
- IC50 (JH2 domain of human Tyk2): ≤ 10 nM
- IC50 (Tyk2): ≤ 10 nM

SMILES: CC(=O)Nc1cc(Nc2cc(C)nc(C(C)(F)F)n2)c(-c2csc(N(C)C)n2)cn1 [Example 271, N-(4-((2-(1,1-difluoroethyl)-6-methylpyrimidin-4-yl)amino)-5-(2-(dimethylamino)thiazol-4-yl)pyridin-2-yl)acetamide]
- IC50 (JH2 domain of human Tyk2): ≤ 10 nM
- IC50 (Tyk2): ≤ 10 nM

SMILES: CC(=O)Nc1cc(Nc2cc(C)nc(C(C)(F)F)n2)c(-c2cc(C(C)(C)O)n(C)n2)cn1 [Example 272, N-(4-((2-(1,1-difluoroethyl)-6-methylpyrimidin-4-yl)amino)-5-(5-(2-hydroxypropan-2-yl)-1-methyl-1H-pyrazol-3-yl)pyridin-2-yl)acetamide]
- IC50 (JH2 domain of human Tyk2): ≤ 10 nM
- IC50 (Tyk2): ≤ 10 nM

SMILES: COc1cncc(-c2cnc(NC(C)=O)cc2Nc2ccnc(C(C)(F)F)n2)n1 [Example 273, N-(4-((2-(1,1-difluoroethyl)pyrimidin-4-yl)amino)-5-(6-methoxypyrazin-2-yl)pyridin-2-yl)acetamide]
- IC50 (JH2 domain of human Tyk2): 10 to 100 nM
- IC50 (Tyk2): 100 to 1000 nM

SMILES: COCCNc1cncc(-c2cnc(NC(C)=O)cc2Nc2ccnc(C(C)(F)F)n2)n1 [Example 274, N-(4-((2-(1,1-difluoroethyl)pyrimidin-4-yl)amino)-5-(6-((2-methoxyethyl)amino)pyrazin-2-yl)pyridin-2-yl)acetamide]
- IC50 (JH2 domain of human Tyk2): ≤ 10 nM
- IC50 (Tyk2): 10 to 100 nM

SMILES: COCCN(C)c1cncc(-c2cnc(NC(C)=O)cc2Nc2ccnc(C(C)(F)F)n2)n1 [Example 275, N-(4-((2-(1,1-difluoroethyl)pyrimidin-4-yl)amino)-5-(6-((2-methoxyethyl)(methyl)amino)pyrazin-2-yl)pyridin-2-yl)acetamide]
- IC50 (JH2 domain of human Tyk2): ≤ 10 nM
- IC50 (Tyk2): 100 to 1000 nM

SMILES: CC(=O)Nc1cc(Nc2cc(C)nc(C(C)(F)F)n2)c(-n2cc3c(n2)CCN(C)C3)cn1 [Example 277, N-(4-((2-(1,1-difluoroethyl)-6-methylpyrimidin-4-yl)amino)-5-(5-methyl-4,5,6,7-tetrahydro-2H-pyrazolo[4,3-c]pyridin-2-yl)pyridin-2-yl)acetamide]
- IC50 (JH2 domain of human Tyk2): ≤ 10 nM
- IC50 (Tyk2): ≤ 10 nM

SMILES: CCc1cc(Nc2cc(NC(C)=O)ncc2-c2nc(C)no2)nc(C(C)(F)F)n1 [Example 281, N-(4-((2-(1,1-difluoroethyl)-6-ethylpyrimidin-4-yl)amino)-5-(3-methyl-1,2,4-oxadiazol-5-yl)pyridin-2-yl)acetamide]
- IC50 (JH2 domain of human Tyk2): ≤ 10 nM
- IC50 (Tyk2): 10 to 100 nM

SMILES: CC(=O)Nc1cc(Nc2cc(C)nc(C(C)(F)F)n2)c(-c2cc3n(n2)CCNC3)cn1 [Example 282, N-(4-((2-(1,1-difluoroethyl)-6-methylpyrimidin-4-yl)amino)-5-(4,5,6,7-tetrahydropyrazolo[1,5-a]pyrazin-2-yl)pyridin-2-yl)acetamide]
- IC50 (JH2 domain of human Tyk2): ≤ 10 nM
- IC50 (Tyk2): ≤ 10 nM

SMILES: CCN1CCn2nc(-c3cnc(NC(C)=O)cc3Nc3cc(C)nc(C(C)(F)F)n3)cc2C1 [Example 283, N-(4-((2-(1,1-difluoroethyl)-6-methylpyrimidin-4-yl)amino)-5-(5-ethyl-4,5,6,7-tetrahydropyrazolo[1,5-a]pyrazin-2-yl)pyridin-2-yl)acetamide]
- IC50 (JH2 domain of human Tyk2): ≤ 10 nM
- IC50 (Tyk2): ≤ 10 nM

SMILES: CC(=O)Nc1cc(Nc2cc(C)nc(C(C)(F)F)n2)c(-c2cc(C#N)cnn2)cn1 [Example 286, N-(5-(5-cyanopyridazin-3-yl)-4-((2-(1,1-difluoroethyl)-6-methylpyrimidin-4-yl)amino)pyridin-2-yl)acetamide]
- IC50 (JH2 domain of human Tyk2): ≤ 10 nM
- IC50 (Tyk2): 100 to 1000 nM

SMILES: CC(=O)Nc1cc(Nc2cc(C)nc(C(C)(F)F)n2)c(-c2cc(CN(C)C)n(C)n2)cn1 [Example 287, N-(4-((2-(1,1-difluoroethyl)-6-methylpyrimidin-4-yl)amino)-5-(5-((dimethylamino)methyl)-1-methyl-1H-pyrazol-3-yl)pyridin-2-yl)acetamide]
- IC50 (JH2 domain of human Tyk2): ≤ 10 nM
- IC50 (Tyk2): ≤ 10 nM
